Reference: the NIST ThermoML archive (doi:10.1016/j.jct.2016.12.032)
± gives the expanded uncertainty stated by the source.

Legend:
[1] = 100 kPa, Liquid; for mass density: Vibrating tube method; for viscosity: Capillary tube (Ostwald / Ubbelohde) method; for speed of sound: Frequency=3 MHz, Sing-around technique in a fixed-path interferometer
[2] = xn = mol fraction of the nth substance listed; details: 100 kPa, Liquid, x1 = 1; for viscosity: Capillary tube (Ostwald / Ubbelohde) method; for mass density: Vibrating tube method
[3] = refractive index (Na D-line) (dimensionless); details: 100 kPa, Liquid, Standard Abbe refractometry

CCCC[n+]1ccn(C)c1.O=S(=O)([N-]S(=O)(=O)C(F)(F)F)C(F)(F)F
[1]
Details	mass density [kg/m3]
293.15 K	1441.61 ± 2
298.15 K	1436.67 ± 2
303.15 K	1431.58 ± 2
308.15 K	1426.62 ± 2
313.15 K	1421.58 ± 2
318.15 K	1416.58 ± 2
323.15 K	1411.54 ± 2

CCCC[n+]1ccn(C)c1.O=S(=O)([N-]S(=O)(=O)C(F)(F)F)C(F)(F)F + CC1CC(=O)O1
[2]
Details	mass density [kg/m3]	viscosity [mPa·s]
293.15 K	1441.61 ± 2	62.08 ± 2.5
298.15 K	1436.67 ± 2	50.05 ± 2
303.15 K	1431.58 ± 2	41.24 ± 1.7
308.15 K	1426.62 ± 2	33.65 ± 1.4
313.15 K	1421.58 ± 2	28.28 ± 1.1
318.15 K	1416.58 ± 2	23.91 ± 0.97
323.15 K	1411.54 ± 2	20.64 ± 0.84

CCCC[n+]1ccn(C)c1.O=S(=O)([N-]S(=O)(=O)C(F)(F)F)C(F)(F)F + CC1CCC(=O)O1
[2]
Details	mass density [kg/m3]	viscosity [mPa·s]
293.15 K	1441.61 ± 2	62.08 ± 2.5
298.15 K	1436.67 ± 2	50.05 ± 2
303.15 K	1431.58 ± 2	41.24 ± 1.7
308.15 K	1426.62 ± 2	33.65 ± 1.4
313.15 K	1421.58 ± 2	28.28 ± 1.1
318.15 K	1416.58 ± 2	23.91 ± 0.97
323.15 K	1411.54 ± 2	20.64 ± 0.84

CCCC[n+]1ccn(C)c1.O=S(=O)([N-]S(=O)(=O)C(F)(F)F)C(F)(F)F + O=C1CCCCCO1
[2]
Details	mass density [kg/m3]	viscosity [mPa·s]
293.15 K	1441.61 ± 2	62.08 ± 2.5
298.15 K	1436.67 ± 2	50.05 ± 2
303.15 K	1431.58 ± 2	41.24 ± 1.7
308.15 K	1426.62 ± 2	33.65 ± 1.4
313.15 K	1421.58 ± 2	28.28 ± 1.1
318.15 K	1416.58 ± 2	23.91 ± 0.97
323.15 K	1411.54 ± 2	20.64 ± 0.84

CCCC[n+]1ccn(C)c1.O=S(=O)([N-]S(=O)(=O)C(F)(F)F)C(F)(F)F + O=C1CCCCO1
[2]
Details	mass density [kg/m3]	viscosity [mPa·s]
293.15 K	1441.61 ± 2	62.08 ± 2.5
298.15 K	1436.67 ± 2	50.05 ± 2
303.15 K	1431.58 ± 2	41.24 ± 1.7
308.15 K	1426.62 ± 2	33.65 ± 1.4
313.15 K	1421.58 ± 2	28.28 ± 1.1
318.15 K	1416.58 ± 2	23.91 ± 0.97
323.15 K	1411.54 ± 2	20.64 ± 0.84

O=C1CCCCO1 [1-oxacyclohexan-2-one]
[1]
Details	mass density [kg/m3]	speed of sound [m/s]	viscosity [mPa·s]
293.15 K	1108.53 ± 2	1587.2 ± 3.4	3.68 ± 0.15
298.15 K	1103.96 ± 2	1569.2 ± 3.4	3.3 ± 0.13
303.15 K	1099.44 ± 2	1551.3 ± 3.3	2.98 ± 0.12
308.15 K	1094.83 ± 2	1533.5 ± 3.3	2.7 ± 0.11
313.15 K	1090.27 ± 2	1516 ± 3.3	2.47 ± 0.1
318.15 K	1085.71 ± 2	1498.6 ± 3.2	2.25 ± 0.09
323.15 K	1081.16 ± 2	1481.5 ± 3.2	2.09 ± 0.09

CC1CC(=O)O1 (stereo not drawn) [4-methyl-2-oxetanone]
Details	mass density, [1] [kg/m3]	refractive index, [3]	speed of sound, [1] [m/s]	viscosity, [1] [mPa·s]
293.15 K	1055.93 ± 2	1.414 ± 0.003	1371 ± 3	1.68 ± 0.07
298.15 K	1050.68 ± 2	1.412 ± 0.003	1352.8 ± 3	1.55 ± 0.06
303.15 K	1045.31 ± 2	1.41 ± 0.003	1334.7 ± 2.9	1.48 ± 0.06
308.15 K	1039.85 ± 2	1.407 ± 0.003	1316.7 ± 2.9	1.4 ± 0.06
313.15 K	1034.33 ± 2	1.405 ± 0.003	1298.8 ± 2.9	1.33 ± 0.05
318.15 K	1028.79 ± 2	1.403 ± 0.003	1281.1 ± 2.8	1.25 ± 0.05
323.15 K	1023.19 ± 2	1.401 ± 0.003	1263.6 ± 2.8	1.18 ± 0.05

O=C1CCCCCO1 [6-hexanolactone]
Details	mass density, [1] [kg/m3]	refractive index, [3]	speed of sound, [1] [m/s]	viscosity, [1] [mPa·s]
293.15 K	1075.92 ± 2	1.463 ± 0.003	1567.8 ± 3.4	6.63 ± 0.27
298.15 K	1071.67 ± 2	1.461 ± 0.003	1548.3 ± 3.3	5.76 ± 0.23
303.15 K	1067.41 ± 2	1.459 ± 0.003	1529 ± 3.3	5.04 ± 0.2
308.15 K	1063.15 ± 2	1.457 ± 0.003	1510 ± 3.3	4.44 ± 0.18
313.15 K	1058.9 ± 2	1.455 ± 0.003	1491.2 ± 3.2	3.95 ± 0.16
318.15 K	1054.65 ± 2	1.454 ± 0.003	1472.7 ± 3.2	3.53 ± 0.14
323.15 K	1050.4 ± 2	1.452 ± 0.003	1454.5 ± 3.1	3.17 ± 0.13

CC1CCC(=O)O1 (stereo not drawn) [γ-valerolactone]
Details	mass density, [1] [kg/m3]	refractive index, [3]	speed of sound, [1] [m/s]	viscosity, [1] [mPa·s]
293.15 K	1053.99 ± 2	1.434 ± 0.003	1447.3 ± 3.1	1.99 ± 0.08
298.15 K	1049.28 ± 2	1.432 ± 0.003	1429.2 ± 3.1	1.82 ± 0.07
303.15 K	1044.58 ± 2	1.43 ± 0.003	1411.3 ± 3.1	1.67 ± 0.07
308.15 K	1039.87 ± 2	1.427 ± 0.003	1393.5 ± 3	1.53 ± 0.06
313.15 K	1035.16 ± 2	1.425 ± 0.003	1375.9 ± 3	1.42 ± 0.06
318.15 K	1030.45 ± 2	1.423 ± 0.003	1358.4 ± 3	1.32 ± 0.05
323.15 K	1025.74 ± 2	1.421 ± 0.003	1341.2 ± 2.9	1.23 ± 0.05
